Patent US20240327430A1 (Breakpoint Therapeutics GmbH, priority 2023, published 2024)
Like-named read-outs stand apart in the source and are kept apart here.

Target: truncated Polθ protein (Polθ-Hel containing the helicase domain (67-894)) (Homo sapiens (Human), UniProt O75417)
Test: Polθ ATPase assay (Biological Assay 1, ADP-Glo luminescence)
Type: biochemical
Protocol: The Polθ ATPase assay was used to evaluate inhibitors of Polθ ATPase activity, in vitro. Experiments were performed using a truncated Polθ protein (Polθ-Hel containing the helicase domain (67-894), ATP and a DNA single strand Oligo (5′-CTGTCCTGCATGATG-3′) in the Polθ assay buffer (20 mM Tis-HCl (pH 8.8), MgCl2 5 mM, tween20 0.01%, NP40 0.01%, BSA 0.01%, DTT 1 mM). 2 μL of assay buffer containing Pole-Hel protein (0.5 nM) and DNA substrate (500 nM) was transferred into assay ready plates, containing 0.04 μL of compounds diluted in DMSO. After a 30 minutes incubation at 23° C. in the dark, the reaction was triggered by adding 2 μL of ATP (60 μM), in assay buffer. After 60 minutes at 23° C., 4 μl of ADP-Glo™ Reagent (Glo 1) was added followed by 40 minutes of incubation, then 8 μl of ADP-Glom kinase Detection Reagent (Glo 2) followed by 60 minutes of incubation at 23° C. Luminescence was then measured using Tecan F200 infinite plate reader. Raw data were analysed using GeneData to generate IC50 values.
The Polθ ATPase assay described in Biological Assay 1 above was used to evaluate inhibitors of Polθ ATPase activity for the compounds described in the Experimental Part B above, in vitro.

[1] = Polθ-Hel 0.5 nM, DNA substrate 500 nM, ATP 60 μM, 23° C., read-out: Pole ATPase assay IC50
[2] = Table B, compounds of Experimental Part B, in vitro, read-out: Polθ ATPase assay IC50

Chain of truncated Polθ protein (Polθ-Hel containing the helicase domain (67-894)) (O75417 67-894): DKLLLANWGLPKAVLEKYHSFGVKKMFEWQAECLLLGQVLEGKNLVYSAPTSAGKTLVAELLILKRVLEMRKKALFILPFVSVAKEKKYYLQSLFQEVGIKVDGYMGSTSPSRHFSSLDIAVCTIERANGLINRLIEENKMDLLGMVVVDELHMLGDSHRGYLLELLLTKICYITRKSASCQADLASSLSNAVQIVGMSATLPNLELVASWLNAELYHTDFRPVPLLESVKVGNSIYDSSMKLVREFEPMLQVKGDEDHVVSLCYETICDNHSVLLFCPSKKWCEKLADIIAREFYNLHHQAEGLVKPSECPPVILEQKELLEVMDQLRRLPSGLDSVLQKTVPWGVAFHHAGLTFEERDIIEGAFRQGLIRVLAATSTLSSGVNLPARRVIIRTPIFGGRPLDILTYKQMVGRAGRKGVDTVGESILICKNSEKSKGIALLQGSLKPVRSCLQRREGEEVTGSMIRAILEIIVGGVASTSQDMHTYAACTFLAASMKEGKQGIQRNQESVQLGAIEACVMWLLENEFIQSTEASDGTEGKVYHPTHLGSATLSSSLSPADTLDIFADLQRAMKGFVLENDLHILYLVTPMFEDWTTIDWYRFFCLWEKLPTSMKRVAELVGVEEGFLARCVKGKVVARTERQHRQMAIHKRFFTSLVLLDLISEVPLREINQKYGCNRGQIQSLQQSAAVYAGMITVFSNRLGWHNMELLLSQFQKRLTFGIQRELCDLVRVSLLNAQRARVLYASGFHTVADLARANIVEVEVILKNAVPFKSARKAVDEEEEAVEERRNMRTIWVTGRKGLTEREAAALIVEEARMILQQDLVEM

| IC50 [1] [nM] | IC50 [2] [nM] | SMILES |
| --- | --- | --- |
| < 100 |  | COc1cnc(Cl)cc1-c1cc(C)ncc1C(=O)Nc1nc2ccc(-c3ccc(Cl)cn3)cc2s1 [Example 38, 2′-chloro-N-[6-(5-chloropyridin-2-yl)-1,3-benzothiazol-2-yl]-5′-methoxy-6-methyl-[4,4′-bipyridine]-3-carboxamide] |
| < 100 |  | COc1ncc2nc(NC(=O)c3cnc(C)cc3-c3cc(Cl)ncc3OC)sc2n1 [Example 75, 2′-chloro-5′-methoxy-N-{5-methoxy-[1,3]thiazolo[5,4-d]pyrimidin-2-yl}-6-methyl-[4,4′-bipyridine]-3-carboxamide] |
|  | < 100 | COc1cnc(Cl)cc1-c1cc(C)ncc1C(=O)Nc1nc2c(OCC#N)ncnc2s1 [Example 126, 2′-chloro-N-[7-(cyanomethoxy)-[1,3]thiazolo[5,4-d]pyrimidin-2-yl]-5′-methoxy-6-methyl-[4,4′-bipyridine]-3-carboxamide] |
| > 1000 |  | COc1ccccc1-c1cnccc1C(=O)Nc1nc2cc(Cl)ccc2s1 [Example 13, N-(5-chloro-1,3-benzothiazol-2-yl)-3-(2-methoxyphenyl)pyridine-4-carboxamide] |
| 100 to 1000 |  | COc1cnc(Cl)cc1-c1cc(C)ncc1C(=O)Nc1nc2ccc(N)cc2s1 [Example 36A, N-(6-amino-1,3-benzothiazol-2-yl)-4-(2-chloro-5-methoxy-4-pyridyl)-6-methyl-pyridine-3-carboxamide] |
| < 100 |  | COc1cnc(Cl)cc1-c1cc(C)ncc1C(=O)Nc1nc2cnc(N3CC4(CCOC4)C3)nc2s1 [Example 82, 2′-chloro-5′-methoxy-6-methyl-N-(5-{6-oxa-2-azaspiro[3.4]octan-2-yl}-[1,3]thiazolo[5,4-d]pyrimidin-2-yl)-[4,4′-bipyridine]-3-carboxamide] |
| < 100 |  | COc1cnc(Cl)cc1-c1cc(C)ncc1C(=O)Nc1nc2ccccc2s1 [Example 69, N-(1,3-benzothiazol-2-yl)-2′-chloro-5′-methoxy-6-methyl-[4,4′-bipyridine]-3-carboxamide] |
|  | < 100 | COc1cnc(Cl)cc1-c1cc(C)ncc1C(=O)Nc1nc2cnc(OCC(C)(C)O)nc2s1 [Example 133, 2′-chloro-N-[5-(2-hydroxy-2-methylpropoxy)-[1,3]thiazolo[5,4-d]pyrimidin-2-yl]-5′-methoxy-6-methyl-[4,4′-bipyridine]-3-carboxamide] |
| < 100 |  | COc1cnc(Cl)cc1-c1cc(C)ncc1C(=O)Nc1nc2ccc(Cl)cc2s1 [Example 1, N-(6-chloro-1,3-benzothiazol-2-yl)-4-(2-chloro-5-methoxy-4-pyridyl)-6-methyl-pyridine-3-carboxamide] |
|  | < 100 | COc1cnc(C)cc1-c1cc(C)ncc1C(=O)Nc1nc2cnc(N3CCC(O)CC3)nc2s1 [Example 117, N-[5-(4-hydroxypiperidin-1-yl)-[1,3]thiazolo[5,4-d]pyrimidin-2-yl]-5′-methoxy-2′,6-dimethyl-[4,4′-bipyridine]-3-carboxamide] |
| < 100 |  | COc1cnc(Cl)cc1-c1cc(C)ncc1C(=O)Nc1nc2cnc(C(F)(F)F)nc2s1 [Example 90, 2′-chloro-5′-methoxy-6-methyl-N-[5-(trifluoromethyl)-[1,3]thiazolo[5,4-d]pyrimidin-2-yl]-[4,4′-bipyridine]-3-carboxamide] |
| < 100 |  | COc1cnc(Cl)cc1-c1cc(C)ncc1C(=O)Nc1nc2cnc(C)nc2s1 [Example 91, 2′-chloro-5′-methoxy-6-methyl-N-{5-methyl-[1,3]thiazolo[5,4-d]pyrimidin-2-yl}-[4,4′-bipyridine]-3-carboxamide] |
|  | < 100 | COc1cnc(Cl)cc1-c1cc(C)ncc1C(=O)Nc1nc2cnc(NCCCCC(=O)O)cc2s1 [Example 119, 5-[(2-{2′-chloro-5′-methoxy-6-methyl-[4,4′-bipyridine]-3-amido}-[1,3]thiazolo[4,5-c]pyridin-6-yl)amino]pentanoic acid] |
| < 100 |  | COc1cnc(Cl)cc1-c1cc(C)ncc1C(=O)Nc1nc2cnc(N3CCCCC3=O)nc2s1 [Example 94, 2′-chloro-5′-methoxy-6-methyl-N-[5-(2-oxopiperidin-1-yl)-[1,3]thiazolo[5,4-d]pyrimidin-2-yl]-[4,4′-bipyridine]-3-carboxamide] |
| < 100 |  | COc1cnc(Cl)cc1-c1cc(C)ncc1C(=O)Nc1nc2cnc(N3CCCCC3)nc2s1 [Example 20, 2′-chloro-5′-methoxy-6-methyl-N-[5-(piperidin-1-yl)-[1,3]thiazolo[5,4-d]pyrimidin-2-yl]-[4,4′-bipyridine]-3-carboxamide] |
|  | < 100 | COc1cnc(Cl)cc1-c1cc(C)ncc1C(=O)Nc1nc2cc(OCC#N)ccc2s1 [Example 101, 2′-chloro-N-[5-(cyanomethoxy)-1,3-benzothiazol-2-yl]-5′-methoxy-6-methyl-[4,4′-bipyridine]-3-carboxamide] |
| < 100 |  | COc1cnc(Cl)cc1-c1cc(C)ncc1C(=O)Nc1nc2cnc(NCC(C)C)nc2s1 [Example 78, 2′-chloro-5′-methoxy-6-methyl-N-{5-[(2-methylpropyl)amino]-[1,3]thiazolo[5,4-d]pyrimidin-2-yl}-[4,4′-bipyridine]-3-carboxamide] |
| < 100 |  | COc1cnc(Cl)cc1-c1cc(C)ncc1C(=O)Nc1nc2ccc(N3CC[C@@H](O)CC3=O)cc2s1 [Example 85, 2′-chloro-N-{6-[(4R)-4-hydroxy-2-oxopiperidin-1-yl]-1,3-benzothiazol-2-yl}-5′-methoxy-6-methyl-[4,4′-bipyridine]-3-carboxamide] |
| < 100 |  | COc1cnc(Cl)cc1-c1cc(C)ncc1C(=O)Nc1nc2cnc(N3CCS(=O)(=O)CC3)nc2s1 [Example 27, 2′-chloro-N-[5-(1,1-dioxo-1λ^6-thiomorpholin-4-yl)-[1,3]thiazolo[5,4-d]pyrimidin-2-yl]-5′-methoxy-6-methyl-[4,4′-bipyridine]-3-carboxamide] |
|  | < 100 | COc1ccc2sc(NC(=O)c3cnc(C)cc3-c3cc(Cl)ncc3OC)nc2c1 [Example 106, 2′-chloro-5′-methoxy-N-(5-methoxy-1,3-benzothiazol-2-yl)-6-methyl-[4,4′-bipyridine]-3-carboxamide] |
|  | < 100 | COc1cnc(Cl)cc1-c1cc(C)ncc1C(=O)Nc1nc2cc(OCC(=O)N(C)C)ccc2s1 [Example 110, 2′-chloro-N-{5-[(dimethylcarbamoyl)methoxy]-1,3-benzothiazol-2-yl}-5′-methoxy-6-methyl-[4,4′-bipyridine]-3-carboxamide] |
| < 100 |  | COc1cnc(Cl)cc1-c1cc(C)ncc1C(=O)Nc1nc2cnc(N3CCOC[C@H]3C)nc2s1 [Example 50, 2′-chloro-5′-methoxy-6-methyl-N-{5-[(3R)-3-methylmorpholin-4-yl]-[1,3]thiazolo[5,4-d]pyrimidin-2-yl}-[4,4′-bipyridine]-3-carboxamide] |
| < 100 |  | COc1cnc(Cl)cc1-c1cc(C)ncc1C(=O)Nc1nc2ccc(N3CCOCC3)cc2s1 [Example 17, 2′-chloro-5′-methoxy-6-methyl-N-[6-(morpholin-4-yl)-1,3-benzothiazol-2-yl]-[4,4′-bipyridine]-3-carboxamide] |
| < 100 |  | COc1cnc(Cl)cc1-c1cc(C)ncc1C(=O)Nc1nc2cnc(N3CCCCC3=O)cc2s1 [Example 61, 2′-chloro-5′-methoxy-6-methyl-N-[6-(2-oxopiperidin-1-yl)-[1,3]thiazolo[4,5-c]pyridin-2-yl]-[4,4′-bipyridine]-3-carboxamide] |
|  | < 100 | COc1cnc(Cl)cc1-c1cc(C)ncc1C(=O)Nc1nc2cc(OCc3nn[nH]n3)ccc2s1 [Example 121, 2′-chloro-5′-methoxy-6-methyl-N-{5-[(2H-1,2,3,4-tetrazol-5-yl)methoxy]-1,3-benzothiazol-2-yl}-[4,4′-bipyridine]-3-carboxamide] |
| < 100 |  | COc1cnc(Cl)cc1-c1cc(C)ncc1C(=O)Nc1nc2ncc(N3CCOCC3)cc2s1 [Example 67, 2′-chloro-5′-methoxy-6-methyl-N-[6-(morpholin-4-yl)-[1,3]thiazolo[4,5-b]pyridin-2-yl]-[4,4′-bipyridine]-3-carboxamide] |
|  | < 100 | COc1cnc(Cl)cc1-c1cc(C)ncc1C(=O)Nc1nc2cc(OCC3CCN(C(C)=O)CC3)ccc2s1 [Example 109, N-{5-[(1-acetylpiperidin-4-yl)methoxy]-1,3-benzothiazol-2-yl}-2′-chloro-5′-methoxy-6-methyl-[4,4′-bipyridine]-3-carboxamide] |
|  | < 100 | COc1cnc(Cl)cc1-c1cc(C)ncc1C(=O)Nc1nc2ccc(C3COCCN3)cc2s1 (stereo not drawn) [Example 128, 2′-chloro-5′-methoxy-6-methyl-N-[6-(morpholin-3-yl)-1,3-benzothiazol-2-yl]-[4,4′-bipyridine]-3-carboxamide] |
| < 100 |  | COc1cnc(Cl)cc1-c1cc(C)ncc1C(=O)Nc1nc2cnc(N3CCNCC3)nc2s1 [Example 55, 2′-chloro-5′-methoxy-6-methyl-N-[5-(piperazin-1-yl)-[1,3]thiazolo[5,4-d]pyrimidin-2-yl]-[4,4′-bipyridine]-3-carboxamide] |

| SMILES | IC50 [1] [nM] | IC50 [2] [nM] |
| --- | --- | --- |
| COc1cnc(Cl)cc1-c1cc(C)ncc1C(=O)Nc1nc2c(OCC(N)=O)ncnc2s1 [Example 127, N-[7-(carbamoylmethoxy)-[1,3]thiazolo[5,4-d]pyrimidin-2-yl]-2′-chloro-5′-methoxy-6-methyl-[4.4′-bipyridine]-3-carboxamide] |  | < 100 |
